Reference: PubChem BioAssay (NCI)
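Each compound was tested at five concentrations against cells in 96-well plates for 48 hours. Here, GI50 denotes the concentration required for 50% inhibition of growth. Definition used: TGI = concentration required for complete inhibition of growth.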

What was measured:
Experiment in all cases: inhibition of tumour cell growth, NCI panel, 48 h
786-0 renal = test system: 786-0 renal
A498 renal = test system: A498 renal
A549 NSCLC = test system: A549 NSCLC
ACHN renal = test system: ACHN renal
BT-549 breast = test system: BT-549 breast
CAKI-1 renal = test system: CAKI-1 renal
CCRF-CEM leukemia = test system: CCRF-CEM leukemia
COLO 205 colon = test system: COLO 205 colon
DU-145 prostate = test system: DU-145 prostate
EKVX NSCLC = test system: EKVX NSCLC
HCC-2998 colon = test system: HCC-2998 colon
HCT-116 colon = test system: HCT-116 colon
HCT-15 colon = test system: HCT-15 colon
HL-60(TB) leukemia = test system: HL-60(TB) leukemia
HOP-62 NSCLC = test system: HOP-62 NSCLC
HOP-92 NSCLC = test system: HOP-92 NSCLC
HS 578T breast = test system: HS 578T breast
HT29 colon = test system: HT29 colon
IGROV1 ovarian = test system: IGROV1 ovarian
K-562 leukemia = test system: K-562 leukemia
KM12 colon = test system: KM12 colon
LOX IMVI melanoma = test system: LOX IMVI melanoma
M14 melanoma = test system: M14 melanoma
MALME-3M melanoma = test system: MALME-3M melanoma
MCF7 breast = test system: MCF7 breast
MDA-MB-231 breast = test system: MDA-MB-231 breast
MDA-MB-435 = test system: MDA-MB-435
MDA-MB-468 breast = test system: MDA-MB-468 breast
MOLT-4 leukemia = test system: MOLT-4 leukemia
NCI-H226 lung = test system: NCI-H226 lung
NCI-H23 lung = test system: NCI-H23 lung
NCI-H460 lung = test system: NCI-H460 lung
NCI-H522 lung = test system: NCI-H522 lung
NCI/ADR-RES ovarian = test system: NCI/ADR-RES ovarian
OVCAR-3 ovarian = test system: OVCAR-3 ovarian
OVCAR-4 ovarian = test system: OVCAR-4 ovarian
OVCAR-5 ovarian = test system: OVCAR-5 ovarian
OVCAR-8 ovarian = test system: OVCAR-8 ovarian
PC-3 prostate = test system: PC-3 prostate
RPMI-8226 leukemia = test system: RPMI-8226 leukemia
RXF 393 renal = test system: RXF 393 renal
SF-268 CNS = test system: SF-268 CNS
SF-295 CNS = test system: SF-295 CNS
SF-539 CNS = test system: SF-539 CNS
SK-MEL-2 melanoma = test system: SK-MEL-2 melanoma
SK-MEL-28 melanoma = test system: SK-MEL-28 melanoma
SK-MEL-5 melanoma = test system: SK-MEL-5 melanoma
SK-OV-3 ovarian = test system: SK-OV-3 ovarian
SN12C renal = test system: SN12C renal
SNB-19 CNS = test system: SNB-19 CNS
SNB-75 CNS = test system: SNB-75 CNS
SR leukemia = test system: SR leukemia
SW-620 colon = test system: SW-620 colon
T-47D breast = test system: T-47D breast
TK-10 renal = test system: TK-10 renal
U251 CNS = test system: U251 CNS
UACC-257 melanoma = test system: UACC-257 melanoma
UACC-62 melanoma = test system: UACC-62 melanoma
UO-31 renal = test system: UO-31 renal

Work on NS(=O)(=O)c1ccc(N2N=C(c3ccc(NC(=O)Nc4ccccc4)cc3)CC2c2ccc(Br)cc2)cc1 (configuration not stated) yielded a GI50 (786-0 renal) of 2.95 µM, a TGI (786-0 renal) of 10.1 µM and a GI50 (A498 renal) of 1.98 µM. For the same compound, the TGI (A498 renal) was 4.99 µM, the GI50 (A549 NSCLC) was 3.08 µM and the TGI (A549 NSCLC) was 11.3 µM. It also gave a GI50 (ACHN renal) of 2.88 µM, a TGI (ACHN renal) of 8.93 µM and a GI50 (BT-549 breast) of 2.03 µM. The TGI (BT-549 breast) was 4.22 µM, the GI50 (CAKI-1 renal) was 2.64 µM and the TGI (CAKI-1 renal) was 8.44 µM. The GI50 (CCRF-CEM leukemia) was 2.34 µM, the TGI (CCRF-CEM leukemia) was 5.95 µM and the GI50 (COLO 205 colon) was 1.79 µM. It also gave a TGI (COLO 205 colon) of 3.39 µM, a GI50 (DU-145 prostate) of 2.87 µM and a TGI (DU-145 prostate) of 8.67 µM. The GI50 (EKVX NSCLC) was 3.19 µM, the TGI (EKVX NSCLC) was 13.6 µM and the GI50 (HCC-2998 colon) was 1.6 µM. It also gave a TGI (HCC-2998 colon) of 3.06 µM, a GI50 (HCT-116 colon) of 1.75 µM and a TGI (HCT-116 colon) of 3.56 µM. The GI50 (HCT-15 colon) was 2.58 µM, the TGI (HCT-15 colon) was 10.1 µM and the GI50 (HL-60(TB) leukemia) was 2.12 µM. It also gave a TGI (HL-60(TB) leukemia) of 5.59 µM, a GI50 (HOP-62 NSCLC) of 2.01 µM and a TGI (HOP-62 NSCLC) of 4.78 µM. For the same compound, the GI50 (HOP-92 NSCLC) was 1.98 µM, the TGI (HOP-92 NSCLC) was 5.24 µM and the GI50 (HS 578T breast) was 2.52 µM. For the same compound, the TGI (HS 578T breast) was 7.86 µM, the GI50 (HT29 colon) was 1.92 µM and the TGI (HT29 colon) was 4.53 µM. The GI50 (IGROV1 ovarian) was 2.86 µM, the TGI (IGROV1 ovarian) was 10.6 µM and the GI50 (K-562 leukemia) was 3.16 µM. For the same compound, the TGI (K-562 leukemia) was > 100 µM, the GI50 (KM12 colon) was 2.62 µM and the TGI (KM12 colon) was 6.92 µM. For the same compound, the GI50 (LOX IMVI melanoma) was 1.73 µM, the TGI (LOX IMVI melanoma) was 3.12 µM and the GI50 (M14 melanoma) was 2.11 µM. It also gave a TGI (M14 melanoma) of 4.5 µM, a GI50 (MALME-3M melanoma) of 2.15 µM and a TGI (MALME-3M melanoma) of 5.76 µM. For the same compound, the GI50 (MCF7 breast) was 2.6 µM, the TGI (MCF7 breast) was 10.2 µM and the GI50 (MDA-MB-231 breast) was 1.93 µM. It also gave a TGI (MDA-MB-231 breast) of 4.03 µM, a GI50 (MDA-MB-435) of 2.02 µM and a TGI (MDA-MB-435) of 7.47 µM. It also gave a GI50 (MDA-MB-468 breast) of 2.01 µM, a TGI (MDA-MB-468 breast) of 5.38 µM and a GI50 (MOLT-4 leukemia) of 2.66 µM. For the same compound, the TGI (MOLT-4 leukemia) was 11.4 µM, the GI50 (NCI-H226 lung) was 2.34 µM and the TGI (NCI-H226 lung) was 6.76 µM. It also gave a GI50 (NCI-H23 lung) of 1.85 µM, a TGI (NCI-H23 lung) of 3.73 µM and a GI50 (NCI-H460 lung) of 1.92 µM. It also gave a TGI (NCI-H460 lung) of 4.25 µM, a GI50 (NCI-H522 lung) of 2.67 µM and a TGI (NCI-H522 lung) of 8.23 µM. It also gave a GI50 (NCI/ADR-RES ovarian) of 1.91 µM, a TGI (NCI/ADR-RES ovarian) of 4 µM and a GI50 (OVCAR-3 ovarian) of 1.86 µM. The TGI (OVCAR-3 ovarian) was 4.34 µM, the GI50 (OVCAR-4 ovarian) was 2.55 µM and the TGI (OVCAR-4 ovarian) was 10.5 µM. The GI50 (OVCAR-5 ovarian) was 2.14 µM, the TGI (OVCAR-5 ovarian) was 5.4 µM and the GI50 (OVCAR-8 ovarian) was 3.55 µM. The TGI (OVCAR-8 ovarian) was 16.1 µM, the GI50 (PC-3 prostate) was 2.73 µM and the TGI (PC-3 prostate) was 9.76 µM. It also gave a GI50 (RPMI-8226 leukemia) of 2.11 µM, a TGI (RPMI-8226 leukemia) of 5.26 µM and a GI50 (RXF 393 renal) of 1.82 µM. For the same compound, the TGI (RXF 393 renal) was 4.96 µM, the GI50 (SF-268 CNS) was 2.63 µM and the TGI (SF-268 CNS) was 11.2 µM. For the same compound, the GI50 (SF-295 CNS) was 3.18 µM, the TGI (SF-295 CNS) was 12.7 µM and the GI50 (SF-539 CNS) was 2.06 µM. The TGI (SF-539 CNS) was 4.63 µM, the GI50 (SK-MEL-2 melanoma) was 5.38 µM and the TGI (SK-MEL-2 melanoma) was 19.9 µM. For the same compound, the GI50 (SK-MEL-28 melanoma) was 2.66 µM, the TGI (SK-MEL-28 melanoma) was 7.26 µM and the GI50 (SK-MEL-5 melanoma) was 1.77 µM. The TGI (SK-MEL-5 melanoma) was 3.39 µM, the GI50 (SK-OV-3 ovarian) was 3.48 µM and the TGI (SK-OV-3 ovarian) was 14.2 µM. The GI50 (SN12C renal) was 1.68 µM, the TGI (SN12C renal) was 3.15 µM and the GI50 (SNB-19 CNS) was 4.11 µM. For the same compound, the TGI (SNB-19 CNS) was 15.7 µM, the GI50 (SNB-75 CNS) was 1.76 µM and the TGI (SNB-75 CNS) was 11.7 µM. The GI50 (SR leukemia) was 2.71 µM, the TGI (SR leukemia) was 9.08 µM and the GI50 (SW-620 colon) was 2.5 µM. The GI50 (T-47D breast) was 2.87 µM, the TGI (T-47D breast) was 11.6 µM and the GI50 (TK-10 renal) was 3.13 µM. It also gave a TGI (TK-10 renal) of 12.4 µM, a GI50 (U251 CNS) of 2.72 µM and a TGI (U251 CNS) of 8.65 µM. For the same compound, the GI50 (UACC-257 melanoma) was 5.32 µM, the TGI (UACC-257 melanoma) was 20.4 µM and the GI50 (UACC-62 melanoma) was 1.64 µM. It also gave a TGI (UACC-62 melanoma) of 3.23 µM, a GI50 (UO-31 renal) of 2.57 µM and a TGI (UO-31 renal) of 10.7 µM.
